This test deals with T1, Carbonic anhydrase 4 (Bos taurus, UniProt Q95323).
T1 sequence (Q95323 whole entry): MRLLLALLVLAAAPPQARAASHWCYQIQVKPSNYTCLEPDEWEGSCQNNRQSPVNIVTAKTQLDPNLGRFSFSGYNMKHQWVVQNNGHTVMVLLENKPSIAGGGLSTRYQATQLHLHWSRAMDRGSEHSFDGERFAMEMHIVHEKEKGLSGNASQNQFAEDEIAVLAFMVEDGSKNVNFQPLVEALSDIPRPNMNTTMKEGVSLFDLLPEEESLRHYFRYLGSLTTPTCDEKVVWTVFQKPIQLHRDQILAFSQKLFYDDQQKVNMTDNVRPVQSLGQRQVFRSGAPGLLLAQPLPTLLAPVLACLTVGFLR
Description: Inhibitory activity against bovine carbonic anhydrase IV

`NS(=O)(=O)c1ccc(CCNC(=O)CN(CCN(CCN(CC(=O)O)CC(=O)NCCc2ccc(S(N)(=O)=O)cc2)CC(=O)O)CC(=O)O)cc1` [listing 1 of 2 here] showed a Ki of 16 nM. In the case of `NS(=O)(=O)c1nc2ccc(NC(=O)CN(CCN(CCN(CC(=O)O)CC(=O)O)CC(=O)O)CC(=O)O)cc2s1`, affinity was put at a Ki of 9 nM. This Ki is about 1.8-fold lower than that of the compound before. For `NS(=O)(=O)c1ccc(CNC(=O)CN(CCN(CC(=O)O)CC(=O)NCc2ccc(S(N)(=O)=O)cc2)CC(=O)O)cc1` [listing 1 of 2 here] the value was 10 nM; for `NS(=O)(=O)c1ccccc1NC(=O)CN(CCN(CCN(CC(=O)O)CC(=O)O)CC(=O)O)CC(=O)O`, 550 nM; for `NS(=O)(=O)c1ccc(NC(=O)CN(CCN(CCN(CC(=O)O)CC(=O)Nc2ccc(S(N)(=O)=O)cc2I)CC(=O)O)CC(=O)O)c(I)c1`, 24 nM. Take `NS(=O)(=O)c1cccc(NC(=O)CN(CCN(CCN(CC(=O)O)CC(=O)O)CC(=O)O)CC(=O)O)c1`: the Ki was 500 nM. With `NS(=O)(=O)c1ccc(NC(=O)CN(CCN(CC(=O)O)CC(=O)Nc2ccc(S(N)(=O)=O)cc2)CC(=O)O)cc1` [listing 1 of 2 here], the Ki was 230 nM. Compared with the last compound, the Ki is about 2.2-fold lower. For `NS(=O)(=O)c1ccc(COC(=O)CN(CCN(CCN(CC(=O)O)CC(=O)OCc2ccc(S(N)(=O)=O)cc2)CC(=O)O)CC(=O)O)cc1` the value was 170 nM; for `NS(=O)(=O)c1cc(S(N)(=O)=O)c(NC(=O)CN(CCN(CCN(CC(=O)O)CC(=O)O)CC(=O)O)CC(=O)O)c(Cl)c1Cl`, 36 nM; for `NS(=O)(=O)c1ccc(CNC(=O)CN(CCN(CCN(CC(=O)O)CC(=O)O)CC(=O)O)CC(=O)O)cc1`, 40 nM. For `NS(=O)(=O)c1ccc(NC(=O)CN(CCN(CCN(CC(=O)O)CC(=O)Nc2ccc(S(N)(=O)=O)cc2Br)CC(=O)O)CC(=O)O)c(Br)c1` the value was 21 nM; for `NS(=O)(=O)c1ccc(CNC(=O)CN(CCN(CCN(CC(=O)O)CC(=O)NCc2ccc(S(N)(=O)=O)cc2)CC(=O)O)CC(=O)O)cc1` [listing 1 of 2 here], 21 nM; for `NS(=O)(=O)c1cc(S(N)(=O)=O)c(NC(=O)CN(CCN(CCN(CC(=O)O)CC(=O)Nc2c(S(N)(=O)=O)cc(S(N)(=O)=O)c(Cl)c2Cl)CC(=O)O)CC(=O)O)c(Cl)c1Cl`, 25 nM. The compound `NS(=O)(=O)c1ccc(CCNC(=O)CN(CCN(CCN(CC(=O)O)CC(=O)NCCc2ccc(S(N)(=O)=O)cc2)CC(=O)O)CC(=O)O)cc1` [listing 2 of 2 here] had a Ki of 25 nM. With `NS(=O)(=O)c1ccc(NNC(=O)CN(CCN(CCN(CC(=O)O)CC(=O)NNc2ccc(S(N)(=O)=O)cc2)CC(=O)O)CC(=O)O)cc1`, the inhibitory constant (Ki) came to 430 nM. Compared with the last compound, the Ki is about 17-fold higher. For `NS(=O)(=O)c1ccc(CCOC(=O)CN(CCN(CCN(CC(=O)O)CC(=O)OCCc2ccc(S(N)(=O)=O)cc2)CC(=O)O)CC(=O)O)cc1`, the affinity, expressed as Ki, was 115 nM. Regarding `NS(=O)(=O)c1ccc(NC(=O)CN(CCN(CCN(CC(=O)O)CC(=O)Nc2ccc(S(N)(=O)=O)cc2)CC(=O)O)CC(=O)O)cc1`, the Ki turned out to be 100 nM. `Cn1nc(S(N)(=O)=O)s/c1=N/C(=O)CN(CCN(CC(=O)O)CC(=O)/N=c1/sc(S(N)(=O)=O)nn1C)CC(=O)O` displayed a Ki of 8 nM.

Take `NS(=O)(=O)c1cccc(NC(=O)CN(CCN(CCN(CC(=O)O)CC(=O)Nc2cccc(S(N)(=O)=O)c2)CC(=O)O)CC(=O)O)c1`: the Ki was 425 nM. For `NS(=O)(=O)c1ccc(NC(=O)CN(CCN(CCN(CC(=O)O)CC(=O)O)CC(=O)O)CC(=O)O)c(F)c1` the value was 29 nM; for `NS(=O)(=O)c1ccc(NC(=O)CN(CCN(CCN(CC(=O)O)CC(=O)O)CC(=O)O)CC(=O)O)c(I)c1`, 29 nM.

As to `NS(=O)(=O)c1ccc(NC(=O)CN(CCN(CCN(CC(=O)O)CC(=O)Nc2ccc(S(N)(=O)=O)cc2F)CC(=O)O)CC(=O)O)c(F)c1`, the Ki is 18 nM.

With `NS(=O)(=O)c1ccc(COC(=O)CN(CCN(CCN(CC(=O)O)CC(=O)O)CC(=O)O)CC(=O)O)cc1`, the Ki is 265 nM. This Ki lies about 15-fold higher than the previous one. The compound `NS(=O)(=O)c1nc2ccc(OC(=O)CN(CCN(CCN(CC(=O)O)CC(=O)O)CC(=O)O)CC(=O)O)cc2s1` displayed an inhibition constant Ki of 6 nM. For `NS(=O)(=O)c1nnc(NC(=O)CCNC(=O)CN(CCN(CCN(CC(=O)O)CC(=O)NCCC(=O)Nc2nnc(S(N)(=O)=O)s2)CC(=O)O)CC(=O)O)s1` the value was 8 nM. The compound `Cn1nc(S(N)(=O)=O)s/c1=N/C(=O)CN(CCN(CCN(CC(=O)O)CC(=O)O)CC(=O)O)CC(=O)O` yielded a Ki of 19 nM. In turn, `NS(=O)(=O)c1ccc(NNC(=O)CN(CCN(CCN(CC(=O)O)CC(=O)O)CC(=O)O)CC(=O)O)cc1` returned an inhibition constant Ki of 630 nM.

For the compound `NS(=O)(=O)c1ccc(NC(=O)CN(CCN(CCN(CC(=O)O)CC(=O)O)CC(=O)O)CC(=O)O)c(Cl)c1`, the affinity, expressed as Ki, was 32 nM. Regarding `NS(=O)(=O)c1cc(S(N)(=O)=O)c(NC(=O)CN(CCN(CCN(CC(=O)O)CC(=O)O)CC(=O)O)CC(=O)O)cc1Cl`, the inhibition constant Ki amounted to 52 nM. In the case of `NS(=O)(=O)c1ccc(CNC(=O)CN(CCN(CCN(CC(=O)O)CC(=O)NCc2ccc(S(N)(=O)=O)cc2)CC(=O)O)CC(=O)O)cc1` [listing 2 of 2 here], the Ki amounted to 37 nM. For `NS(=O)(=O)c1ccc(NC(=O)CN(CCN(CCN(CC(=O)O)CC(=O)O)CC(=O)O)CC(=O)O)c(Br)c1` the value was 27 nM; for `NS(=O)(=O)c1ccc(CNC(=O)CN(CCN(CC(=O)O)CC(=O)NCc2ccc(S(N)(=O)=O)cc2)CC(=O)O)cc1` [listing 2 of 2 here], 62 nM. Regarding `NS(=O)(=O)c1nnc(NC(=O)CN(CCN(CC(=O)O)CC(=O)Nc2nnc(S(N)(=O)=O)s2)CC(=O)O)s1` [listing 1 of 2 here], the Ki was found to be 12 nM.

Take `NS(=O)(=O)c1cccc(NC(=O)CN(CCN(CC(=O)O)CC(=O)Nc2cccc(S(N)(=O)=O)c2)CC(=O)O)c1`: the affinity corresponds to a Ki of 620 nM. This Ki lies about 52-fold higher than the previous one. For the compound `NS(=O)(=O)c1nc2ccc(NC(=O)CN(CCN(CCN(CC(=O)O)CC(=O)Nc3ccc4nc(S(N)(=O)=O)sc4c3)CC(=O)O)CC(=O)O)cc2s1`, the Ki came out at 6 nM. The compound `NS(=O)(=O)c1ccc(CCNC(=O)CN(CCN(CC(=O)O)CC(=O)NCCc2ccc(S(N)(=O)=O)cc2)CC(=O)O)cc1` [listing 1 of 2 here] showed a Ki of 13 nM. As to `NS(=O)(=O)c1ccc(CCNC(=O)CN(CCN(CC(=O)O)CC(=O)NCCc2ccc(S(N)(=O)=O)cc2)CC(=O)O)cc1` [listing 2 of 2 here], the affinity corresponds to a Ki of 54 nM. As to `NS(=O)(=O)c1ccc(NC(=O)CN(CCN(CC(=O)O)CC(=O)Nc2ccc(S(N)(=O)=O)cc2)CC(=O)O)cc1` [listing 2 of 2 here], the Ki worked out at 210 nM. `NS(=O)(=O)c1ccc(CCNC(=O)CN(CCN(CCN(CC(=O)O)CC(=O)O)CC(=O)O)CC(=O)O)cc1` returned a Ki of 36 nM. In the case of `NS(=O)(=O)c1nnc(NC(=O)CN(CCN(CCN(CC(=O)O)CC(=O)Nc2nnc(S(N)(=O)=O)s2)CC(=O)O)CC(=O)O)s1`, the Ki is 4 nM. Take `NS(=O)(=O)c1cc(S(N)(=O)=O)c(NC(=O)CN(CCN(CCN(CC(=O)O)CC(=O)Nc2cc(Cl)c(S(N)(=O)=O)cc2S(N)(=O)=O)CC(=O)O)CC(=O)O)cc1Cl`: the Ki is 41 nM. Take `NS(=O)(=O)c1nc2ccc(OCCOC(=O)CN(CCN(CCN(CC(=O)O)CC(=O)O)CC(=O)O)CC(=O)O)cc2s1`: the Ki turned out to be 5 nM. In the case of `NS(=O)(=O)c1ccc(CCOC(=O)CN(CCN(CCN(CC(=O)O)CC(=O)O)CC(=O)O)CC(=O)O)cc1`, the affinity corresponds to a Ki of 190 nM. For `NS(=O)(=O)c1nnc(NC(=O)CN(CCN(CC(=O)O)CC(=O)Nc2nnc(S(N)(=O)=O)s2)CC(=O)O)s1` [listing 2 of 2 here] the value was 5 nM; for `NS(=O)(=O)c1ccccc1NC(=O)CN(CCN(CCN(CC(=O)O)CC(=O)Nc1ccccc1S(N)(=O)=O)CC(=O)O)CC(=O)O`, 330 nM. For `NS(=O)(=O)c1nnc(NC(=O)CCNC(=O)CN(CCN(CCN(CC(=O)O)CC(=O)O)CC(=O)O)CC(=O)O)s1` the value was 16 nM.

The record behind these values is ChEMBL document CHEMBL1135903 (J Med Chem, 2002).
